The assay concerns miR-124. Briefly: Regulation of miR-124 expression in a PBMC in vitro model (qPCR). The assay is classed as cell-based. The conditions noted are these: 5 μM test compound, 24 h, human PBMC stimulated with PHA-L and IL-2; miR-191 internal reference; read-out: Relative expression of miR-124, fold change compared with DMSO-treated cells. On the procedure: Pharmacological Activity Test: Regulation of miR-124 Expression by the Quinoline Derivatives in a PBMC In Vitro Model
• a. human PBMC cells • b. PHA-L • c. IL-2 • d. mirVana™ miRNA Extraction kit • e. TaqMan Advanced miRNA cDNA Synthesis Kit • f. TaqMan Fast Gene Expression Master Mix • g. TaqMan Advanced miRNA Assay (mir191) • h. TaqMan Advanced miRNA Assay (mir124)
Human PBMC cells were resuscitated. The cell suspension was transferred to a 75 cm^2 culture flask containing 13 mL of culture medium. The cells were cultured overnight in a 37° C., 5% CO2 incubator. The cell suspension was then collected in a conical flask, centrifuged at 1200 rpm for 5 minutes, and the supernatant was discarded. The cells were resuspended in 1 mL of fresh culture medium, and then the cell clumps were gently blown apart and inoculated into a 6-well plate at a density of 4*10^6 cells/mL. 5 μg/mL PHA-L and 10 ng/mL IL-2 were added to each well. The cells were incubated in the incubator for 48 hours. 5 μM of the test compound was added to each well of a 6-well plate, and 0.1% DMSO was added to the blank control wells, and the plate was incubated at 37° C. for 24 h. Cells were collected, Total RNA was isolated and extracted according to the procedure of the mirVana™ miRNA Extraction Kit, and cDNA was prepared according to the procedure of the TaqMan Advanced miRNA cDNA Synthesis Kit. MiR-191 was used as the internal reference gene for qPCR test.
That is, RNA sample→poly (A) tailing reaction→adapter reaction→reverse transcription (RT) reaction→miR-amplification reaction→qPCR test.
The qPCR procedure includes: 50° C. 2 min; 95° C. 20 s; 95° C. 1 s, a 60° C. 20 s, 40 cycles.
The relative gene expression was calculated using the following formula: ΔCt=Ct (miR-124)−Ct (miR-191)
Relative miRNA expression=2^−ΔCt.

Consider `Fc1cc(Cl)c2nc(Nc3ccc(C4(C(F)(F)F)CC4)cc3)ccc2c1` [Compound 18, 8-chloro-6-fluoro-N-(4-(1-(trifluoromethyl)cyclopropyl)phenyl)quinolin-2-amine], for which the fold induction at 5 µM was determined as 125.

Source of the values: patent US20260216180A1, “QUINOLINE DERIVATIVE COMPOUNDS OR PHARMACEUTICALLY ACCEPTABLE SALT THEREOF, PREPARATION METHOD THEREFOR AND USE THEREOF” (JIANGSU CAREPHAR PHARMACEUTICAL CO.,LTD., priority 2023, published 2026).
